Reference: patent US7943376B2, “Platelet derived growth factor (PDGF)-derived neurospheres define a novel class of progenitor cells” (Stem Cell Therapuetics Inc., priority 2001, dated 2011)
Where “and” joins values, the source holds several entries; their conditions need not be identical. Equal entries are not always repeated. Entries after “also recorded” stand apart in the source; their conditions may differ.

What was measured:
E14 striatum = assay: PDGF-induced production of primary neurospheres from dissociated E14 striatum; assay type: cell-based, mouse
Experimental: (§1) E14 striatum was mechanically dissociated as previously described (for example see U.S. Pat. Nos. 5,750,376; 5,980,885; or 5,851,832) and plated at 10,000 cells/ml in 6 well plates in defined culture media plus 100 ng/ml of PDGF-AA (Peprotech). The composition of defined culture media is as follows: • DMEM/F12 (1:1) • glucose (0.6%) • glutamine (2 mM) • sodium bicarbonate (3 mM) • HEPES (5 mM) • insulin (25 μg/ml) • transferrin (100 μg/ml) • progesterone (20 nM) • putrescine (60 μM) • selenium chloride (30 nM)
Neurospheres, which are clusters of neural cells derived from single cells, formed after 7 days of culture in vitro (DIV). Six wells per experiment were counted for neurosphere production and the results are shown below:
In control experiments, wherein PDGF was omitted from the culture media, no neurospheres formed. Therefore, PDGF is capable of inducing neurosphere production from single precursor cells in the absence of serum, EGF, TGF-α and FGF-2.

[1] = tested on: PDGF primary neurospheres; assay: Secondary neurosphere formation from dissociated PDGF-derived primary neurospheres; assay type: cell-based, mouse; conditions: single PDGF primary neurospheres dissociated in 20 ng/ml EGF or 100 ng/ml PDGF-AA; 7 or more days in vitro
Experimental: Single PDGF primary neurospheres prepared as described in Example 1 were transferred into 96-well plates and mechanically dissociated in either the presence of 20 ng/ml EGF (Peprotech) or 100 ng/ml PDGF-AA. The formation of secondary neurospheres was assayed after 7 or more days in culture in vitro.

primary EGF neurospheres = assay: Secondary neurosphere formation from dissociated EGF-derived primary neurospheres; assay type: cell-based, mouse; conditions: single primary EGF-generated neurospheres dissociated in EGF- or PDGF-containing media; eight wells per condition; Exp. #1 and #2
Experimental: To determine if the neurospheres derived in EGF-containing media have different proliferation properties as those of PDGF-generated neurospheres, primary EGF neurospheres were generated from embryonic day 14 striatum by culturing dissociated striatum in EGF (20 ng/ml) containing define culture media at a cell density of 200,000 cells/ml. Subsequently, individual neurospheres were isolated, placed in individual wells in either PDGF or EGF containing media, and dissociated mechanically. The numbers of secondary neurospheres that came from a single primary EGF-generated neurospheres are given below (eight wells for each condition; numbers indicate average number of secondary neurospheres/well): […]

[2] = tested on: medial ganglionic eminence (MGE); assay: Neurosphere formation using medial ganglionic eminence; assay type: cell-based, mice; conditions: MGE from E14 embryos, cultured as in Example 1 with EGF or PDGF; n = 2 or 3
Excerpt: (§2) In order to locate the cells that give rise to the novel progenitor cells described herein, we dissected ganglionic eminence to two portions. Thus, the ganglionic eminence was isolated from E14 embryos of mice, and the medial ganglionic eminence (MGE) was separated from the lateral ganglionic eminence (LGE). MGE and LGE were then dissociated and cultured as described in Example 1. The resulting primary culture was exposed to EGF or PDGF in addition to the defined culture media, and the number of neurospheres were counted and summarized below.

[3] = tested on: lateral ganglionic eminence (LGE); assay: Neurosphere formation using lateral ganglionic eminence; assay type: cell-based, mice; conditions: LGE from E14 embryos, cultured as in Example 1 with EGF or PDGF; n = 2 or 3
Excerpt: as §2

[4] = tested on: brain tissue prepared as described in Example 1 (E14 striatum); assay: Combined effect of PDGF and EGF on number of neurospheres formed; assay type: cell-based, mouse; conditions: cultured in PDGF, EGF, or the combination of PDGF and EGF
Experimental: as §1
We also tested the effect of combining PDGF and EGF on the number of neurospheres formed. Thus, brain tissue was prepared as described in Example 1 and cultured in the presence of PDGF, EGF, or the combination of PDGF and EGF.

[5] = tested on: PDGF-derived neurospheres; assay: Effect of Tyrphostin AG 1296 on primary neurosphere formation in response to PDGF; assay type: cell-based, mouse
Experimental: (§3) In order to determine if the PDGF-induced primary neurosphere formation is mediated by the PDGF receptor kinase, a selective PDGF receptor kinase inhibitor, Tyrphostin AG 1296, was added to neurosphere culture. Primary cells were cultured at 10,000 cells/ml in the presence of either EGF or PDGF, plus 5 μM of Tyrphostin AG 1296 (Sigma) or DMSO in the same volume as Tyrphostin (DMSO being the solvent for Tyrphostin). Results are expressed below as the percentage of neurospheres formed, with the number of PDGF- or EGF-derived neurospheres arbitrarily set at 100%, respectively.

EGF-derived neurospheres = assay: Effect of Tyrphostin AG 1296 on primary neurosphere formation in response to EGF; assay type: cell-based, mouse
Experimental: as §3

PDGF: platelet derived growth factor; PDGF-AA (Peprotech) used at 100 ng/ml
Average number of neurospheres produced/well, average of experiments 1-6 (E14 striatum; 100 ng/ml PDGF-AA, 10,000 cells/ml, 7 DIV, mean over six experiments): average = 17.7 ± 5.0
Average number of neurospheres produced/well (E14 striatum; 100 ng/ml PDGF-AA, 10,000 cells/ml, defined media, 7 DIV, single experiments, six wells each): 14.5 and 9.2 and 8.6 and 7.7
Average number of neurospheres produced/well (E14 striatum; as E1, experiments marked *: PDGF used immediately after reconstitution in defined culture media): 34.3* and 32.5*
Potency when used immediately after reconstitution in defined culture media (E14 striatum; relative to PDGF not used immediately after reconstitution): *PDGF appears to be approximately 3 fold more potent when used immediately after reconstitution in defined culture media.
Average # of secondary neurospheres formed/well [1]: 0
average number of secondary neurospheres/well (primary EGF neurospheres): 21.5 and 26.7
Average number of neurospheres [2]: 10.22 ± 1.11
Average number of neurospheres [3]: 1.27 ± 0.45
Average number of neurospheres [4]: 73.36 ± 7.13

Tyrphostin AG 1296
Effect on primary neurosphere formation induced by PDGF (in words) ([5]; 5 μM Tyrphostin AG 1296): inhibited; also recorded: almost abolished
percentage of neurospheres formed ([5]; PDGF plus 5 μM Tyrphostin AG 1296, 10,000 cells/ml, PDGF alone set at 100%, n = 3 to 9): 10%
Effect on EGF-derived neurosphere formation (in words) (EGF-derived neurospheres; 5 μM Tyrphostin AG 1296): inhibited by Tyrphostin AG 1296 to some extent
percentage of neurospheres formed (EGF-derived neurospheres; EGF plus 5 μM Tyrphostin AG 1296, 10,000 cells/ml, EGF alone set at 100%, n = 3 to 9): 55%

EGF: epidermal growth factor (Peprotech), used at 20 ng/ml
Average # of secondary neurospheres formed/well [1]: 3.12 ± 1.64 (n = 3)
average number of secondary neurospheres/well (primary EGF neurospheres): 27 and 14.1
Average number of neurospheres [2]: 16.9 ± 2.87
Average number of neurospheres [3]: 9.64 ± 1.59
Average number of neurospheres [4]: 80.5 ± 8.57
